# Laboratory results reported in patent US20240150423A1, “GLP-1 ANALOGUE-MODIFIED DIMERS WITH DIFFERENT CONFIGURATIONS, PREPARATION METHOD THEREOF, AND APPLICATION THEREOF IN TREATMENT OF TYPE II DIABETES” (Nanjing Finepeptide Biopharmaceutical Co.,Ltd, priority 2019, published 2024).
# System: Normal Kunming (KM) mice
# Test: multiple OGTT (mOGTT): hypoglycemic duration after a single administration
# Type: in vivo
# Details: monomeric peptides, single injection at the same dose (1.126 nmol), subcutaneous
# Excerpt: • 1. Methods: Normal Kunming (KM) mice (purchased from Guangdong Animal Center) were used for oral glucose tolerance test (OGTT) to obtain the hypoglycemic activity and durability of drug. […] The blood glucose meter and blood glucose test paper were from Bayer […]. The average blood glucose of each group was used as an evaluation standard: When the average blood glucose of experimental group was higher than that of the NaCl control group for two times, the measurement stopped and the hypoglycemic period compared to the blank control group was the effective duration. • 2. Results • 2.1 single OGTTs: after a single administration, the mice were orally administered glucose once and measured the blood glucose from the tail blood at 0, 10, 20, 40, 60 and 120 min. […] The duration of each monomer group was about 1⁄2-1⁄4 of the duration of its corresponding dimer group. […] Therefore, the 2G3 peptide was selected for treating type II diabetes (T2D) in vivo and subsequent experiments.
row,Substance,Hypoglycemic [days]
1,His-Ala-Glu-Gly-Thr-Phe-Thr-Ser-Asp-Val-Cys-Ser-Tyr-Leu-Glu-Gly-Gln-Ala-Ala-Lys[N-ϵ-(N-α-Palmitoyl)]-Glu-Phe-Ile-Ala-Trp-Leu-Val-Arg-Gly-Arg-Gly-NH2 (HAEGTFTSDVCSYLEGQAAXEFIAWLVRGRG; palmitoyl on Lys; C-terminal amide; Sequence is synthesized; (20)..(20) Xaa is 26Lys[N-e-(N-a-palmitoyl-L-g-glutamyl)]; (31)..(31) N-terminal) [G4 series 25],5
2,His-Ala-Glu-Gly-Thr-Phe-Thr-Ser-Asp-Val-Cys-Ser-Tyr-Leu-Glu-Gly-Gln-Ala-Ala-Lys[N-ϵ-(N-α-Palmitoyl)]-Glu-Phe-Ile-Ala-Trp-Leu-Val-Arg-Gly-Arg-Gly-OH (HAEGTFTSDVCSYLEGQAAXEFIAWLVRGRG; palmitoyl on Lys; C-terminal acid; Sequence is synthesized; (20)..(20) Xaa is 26Lys[N-e-(N-a-palmitoyl-L-g-glutamyl)]; (31)..(31) C-terminal) [G4 series 24],3
3,His-Ala-Glu-Gly-Thr-Phe-Thr-Ser-Asp-Val-Cys-Ser-Tyr-Leu-Glu-Gly-Gln-Ala-Ala-Lys[N-ϵ-(N-α-Palmitoyl-L-γ-glutamyl)]-Glu-Phe-Ile-Ala-Trp-Leu-Val-Arg-Gly-Arg-Gly-NH2 (HAEGTFTSDVCSYLEGQAAXEFIAWLVRGRG; palmitoyl-γ-glutamyl on Lys; C-terminal amide; Sequence is synthesized; (20)..(20) Xaa is Xaa is 26Lys[N-e-(N-a-Palmitoyl-g-glutamyl)]; (31)..(31) N-terminal) [G2 series 8],5
4,His-Ala-Glu-Gly-Thr-Phe-Thr-Ser-Asp-Val-Cys-Ser-Tyr-Leu-Glu-Gly-Gln-Ala-Ala-Lys[N-ϵ-(N-α-oleoyl)]-Glu-Phe-Ile-Ala-Trp-Leu-Val-Arg-Gly-Arg-Gly-NH2 (HAEGTFTSDVCSYLEGQAAXEFIAWLVRGRG; oleoyl on Lys; C-terminal amide; Sequence is synthesized; (20)..(20) Xaa is 26Lys[N-e-(N-a-oleoyl-L-g-glutamyl)]; (31)..(31) N-terminal) [G4 series 27],6
5,His-Ala-Glu-Gly-Thr-Phe-Thr-Ser-Asp-Val-Cys-Ser-Tyr-Leu-Glu-Gly-Gln-Ala-Ala-Lys[N-ϵ-(N-α-oleoyl)]-Glu-Phe-Ile-Ala-Trp-Leu-Val-Arg-Gly-Arg-Gly-OH (HAEGTFTSDVCSYLEGQAAXEFIAWLVRGRG; oleoyl on Lys; C-terminal acid; Sequence is synthesized; (20)..(20) Xaa is 26Lys[N-e-(N-a-oleoyl-L-g-glutamyl)]; (31)..(31) C-terminal) [G4 series 26],4
6,His-Ala-Glu-Gly-Thr-Phe-Thr-Ser-Asp-Val-Cys-Ser-Tyr-Leu-Glu-Gly-Gln-Ala-Ala-Lys[N-ϵ-(N-α-oleoyl-L-γ-glutamyl)]-Glu-Phe-Ile-Ala-Trp-Leu-Val-Arg-Gly-Arg-Gly-NH2 (HAEGTFTSDVCSYLEGQAAXEFIAWLVRGRG; oleoyl-γ-glutamyl on Lys; C-terminal amide; Sequence is synthesized; (20)..(20) Xaa is 26Lys[N-e-(N-a-oleoyl-L-g-glutamyl)]; (31)..(31) N-terminal) [G2 series 10],5
7,His-Ala-Glu-Gly-Thr-Phe-Thr-Ser-Asp-Val-Cys-Ser-Tyr-Leu-Glu-Gly-Gln-Ala-Ala-Lys[N-ϵ-(N-α-oleoyl-L-γ-glutamyl)]-Glu-Phe-Ile-Ala-Trp-Leu-Val-Arg-Gly-Arg-Gly-OH (HAEGTFTSDVCSYLEGQAAXEFIAWLVRGRG; oleoyl-γ-glutamyl on Lys; C-terminal acid; Sequence is synthesized; (20)..(20) Xaa is 26Lys[N-e-(N-a-oleoyl-L-g-glutamyl)]; (31)..(1) C-terminal) [G2 series 9],3
8,His-Ala-Glu-Gly-Thr-Phe-Thr-Ser-Asp-Val-Ser-Cys--Tyr-Leu-Glu-Gly-Gln-Ala-Ala-Lys[N-ϵ-(N-α-oleoyl-L-γ-glutamyl)]-Glu-Phe-Ile-Ala-Trp-Leu-Val-Arg-Gly-Arg-Gly-NH2 (HAEGTFTSDVSCYLEGQAAXEFIAWLVRGRG; oleoyl-γ-glutamyl on Lys; C-terminal amide; Sequence is synthesized; (20)..(20) Xaa is 26Lys[N-e-(N-a-oleoyl-L-g-glutamyl)]; (31)..(31) N-terminal) [G3 series 23],7
9,His-Ala-Glu-Gly-Thr-Phe-Thr-Ser-Asp-Val-Ser-Cys-Tyr-Leu-Glu-Gly-Gln-Ala-Ala-Lys-Glu-Phe-Ile-Ala-Trp-Leu-Val-Arg-Gly-Arg-NH-PEG (HAEGTFTSDVSCYLEGQAAKEFIAWLVRGR; not fully specified; C-terminal PEG; Sequence is synthesized; (30)..(30) N-terminal is modified with PEG) [G9 series 71],3
10,His-Ala-Glu-Gly-Thr-Phe-Thr-Ser-Asp-Val-Ser-Cys-Tyr-Leu-Glu-Gly-Gln-Ala-Ala-Lys[N-ϵ-(N-α-Palmitoyl)]-Glu-Phe-Ile-Ala-Trp-Leu-Val-Arg-Gly-Arg-Gly-NH2 (HAEGTFTSDVSCYLEGQAAXEFIAWLVRGRG; palmitoyl on Lys side chain; C-terminal amide; Sequence is synthesized; (20)..(20) Xaa is 26Lys[N-e-(N-a-palmitoyl-L-g-glutamyl)]; (31)..(31) N-terminal) [G4 series 35],6
11,His-Ala-Glu-Gly-Thr-Phe-Thr-Ser-Asp-Val-Ser-Cys-Tyr-Leu-Glu-Gly-Gln-Ala-Ala-Lys[N-ϵ-(N-α-Palmitoyl)]-Glu-Phe-Ile-Ala-Trp-Leu-Val-Arg-Gly-Arg-Gly-OH (HAEGTFTSDVSCYLEGQAAXEFIAWLVRGRG; not fully specified; palmitoyl on Lys side chain; C-terminal acid; Sequence is synthesized; (20)..(20) Xaa is 26Lys[N-e-(N-a-palmitoyl-L-g-glutamyl)]; (31)..(31) C-terminal) [G4 series 34],4
12,His-Ala-Glu-Gly-Thr-Phe-Thr-Ser-Asp-Val-Ser-Cys-Tyr-Leu-Glu-Gly-Gln-Ala-Ala-Lys[N-ϵ-(N-α-Palmitoyl-L-γ-glutamyl)]-Glu-Phe-Ile-Ala-Trp-Leu-Val-Arg-Gly-Arg-Gly-NH2 (HAEGTFTSDVSCYLEGQAAXEFIAWLVRGRG; palmitoyl-γ-glutamyl on Lys; C-terminal amide; Sequence is synthesized; (20)..(20) Xaa is 26Lys[N-e-(N-a-palmitoyl-L-g-glutamyl)]; (31)..(31) N-terminal) [G3 series 22],6
13,His-Ala-Glu-Gly-Thr-Phe-Thr-Ser-Asp-Val-Ser-Cys-Tyr-Leu-Glu-Gly-Gln-Ala-Ala-Lys[N-ϵ-(N-α-Palmitoyl-L-γ-glutamyl)]-Glu-Phe-Ile-Ala-Trp-Leu-Val-Lys[N-ϵ-(N-α-Palmitoyl-L-γ-glutamyl)]-Gly-Arg-Gly-NH2 (HAEGTFTSDVSCYLEGQAAXEFIAWLVXGRG; two palmitoyl-gamma-Glu on Lys; C-terminal amide; Sequence is synthesized; (20)..(20) Xaa is 26Lys[N-e-(N-a-palmitoyl-L-g-glutamyl)]; (28)..(28) Xaa is 26Lys[N-e-(N-a-palmitoyl-L-g-glutamyl)]; (31)..(31) N-terminal) [G5 series 41],3
14,His-Ala-Glu-Gly-Thr-Phe-Thr-Ser-Asp-Val-Ser-Cys-Tyr-Leu-Glu-Gly-Gln-Ala-Ala-Lys[N-ϵ-(N-α-Palmitoyl-L-γ-glutamyl)]-Glu-Phe-Ile-Ala-Trp-Leu-Val-Lys[N-ϵ-(N-α-Palmitoyl-L-γ-glutamyl)]-Gly-Arg-Gly-OH (HAEGTFTSDVSCYLEGQAAXEFIAWLVXGRG; two palmitoyl-gamma-Glu on Lys; C-terminal acid; Sequence is synthesized; (20)..(20) Xaa is 26Lys[N-e-(N-a-palmitoyl-L-g-glutamyl)]; (28)..(28) Xaa is 26Lys[N-e-(N-a-palmitoyl-L-g-glutamyl)]; (31)..(31) C-terminal) [G5 series 40],1
15,His-Ala-Glu-Gly-Thr-Phe-Thr-Ser-Asp-Val-Ser-Cys-Tyr-Leu-Glu-Gly-Gln-Ala-Ala-Lys[N-ϵ-(N-α-oleoyl)]-Glu-Phe-Ile-Ala-Trp-Leu-Val-Arg-Gly-Arg-Gly-NH2 (HAEGTFTSDVSCYLEGQAAXEFIAWLVRGRG; not fully specified; oleoyl on Lys; C-terminal amide; Sequence is synthesized; (20)..(20) Xaa is 26Lys[N-e-(N-a-oleoyl-L-g-glutamyl)]; (31)..(31) N-terminal) [G4 series 33],7
16,His-Ala-Glu-Gly-Thr-Phe-Thr-Ser-Asp-Val-Ser-Cys-Tyr-Leu-Glu-Gly-Gln-Ala-Ala-Lys[N-ϵ-(N-α-oleoyl)]-Glu-Phe-Ile-Ala-Trp-Leu-Val-Arg-Gly-Arg-Gly-OH (HAEGTFTSDVSCYLEGQAAXEFIAWLVRGRG; not fully specified; oleoyl on Lys; C-terminal acid; Sequence is synthesized; (20)..(20) Xaa is 26Lys[N-e-(N-a-oleoyl-L-g-glutamyl)]; (31)..(31) C-terminal) [G4 series 32],5
17,His-Ala-Glu-Gly-Thr-Phe-Thr-Ser-Asp-Val-Ser-Cys-Tyr-Leu-Glu-Gly-Gln-Ala-Ala-Lys[N-ϵ-(N-α-oleoyl-L-γ-glutamyl)]-Glu-Phe-Ile-Ala-Trp-Leu-Val-Arg-Gly-Arg-Gly-OH (HAEGTFTSDVSCYLEGQAAXEFIAWLVRGRG; oleoyl-γ-glutamyl on Lys; C-terminal acid; Sequence is synthesized; (20)..(20) Xaa is 26Lys[N-e-(N-a-oleoyl-L-g-glutamyl)]; (31)..(31) C-terminal) [G3 series 21],4
